Where two headings read alike, the source gives them in different places.
How the values were obtained:
washed human platelets [1] = test: Wash-out reversibility of inhibition of collagen-induced platelet aggregation; type: cell-based
Procedure: The reversible inhibition of Rhosin in collagen-induced platelet aggregation was assessed with similar wash-out experiments, and this reversible nature of Rhosin makes it a valuable antiplatelet drug candidate (Supporting Information Figure S4A,B). After confirming the structures of the above six active analogs, similar wash-out experiments were performed to compare the reversible function of the active analogs with Rhosin reversibility.

RhoA = test: RhoA-GTP formation, GST-Rhotekin effector pull-down assay in collagen-stimulated platelets; type: cell-based, human; details: 20 µM, 2 min pre-incubation; collagen 1 µg/mL for 4 min
Procedure: Next, the ability of the six compounds to suppress RhoA activity in platelets was assessed by subjecting them to a GST (Glutathione-S-transferase)-Rhotekin effector pull-down assay. The compounds were incubated with washed human platelets for 2 min before being stimulated with 1 µg/mL collagen. The analogs inhibited the activation of RhoA at the 20 µM concentration (Figure 2A,B). […] After confirming that these analogs could prevent RhoA activation and the phosphorylation of the MLC, their ability to disrupt complex-formation between RhoA and LARG was tested. […] These findings indicate that the active analogs inhibit RhoA activation by disrupting the binding between RhoA and its GEF.
(A,B) Washed human platelets were incubated with collagen (1 µg/mL) for 4 min, and the levels of RhoA-GTP formation were quantified with a GST-Rhotekin effector pull-down assay. The platelets were pre-incubated with 20 µM UC-177618, UC-177619, UC-177628, UC-177629, […], or […] for 2 min before being stimulated with collagen. The addition of ice-cold lysis buffer terminated the reaction. […] Relative amounts of the GTP-bound form of RhoA were quantified with densitometry measurements of total RhoA (T-RhoA) and normalized to untreated platelets. (C,D) The addition of 20 µM of active Rhosin-related compounds to washed human platelets 2 min before stimulation with collagen blocked the phosphorylation of the myosin light chain (p-MLC). The reactions were terminated after 4 min by adding 4x Laemmli sample buffer. The samples were processed for Western blotting and probed for MLC and p-MLC, and phosphorylation was quantified by measuring the densitometry of total MLC (T-MLC). The differences between DMSO- and Rhosin-related compounds were analyzed with t-test, and the results are shown as means ± SDs of three independent experiments. (* p < 0.05, ** p < 0.01, *** p < 0.001, and **** p < 0.0001).
The relative levels of RhoA-GTP in washed human platelets were quantified with effector domains GST-Rhotekin pull-down assays as previously reported. A volume of 250 µL of washed human platelets (2.5 × 10^8/mL) was pre-warmed to 37 °C along with the compounds or DMSO (0.1%) for 2 min before being stimulated with collagen (1 µg/mL). The reactions were terminated 4 min after collagen stimulation by adding ice-cold lysis buffer (20 mM Tris·HCl (pH 7.6), 100 mM NaCl, 1% Triton X-100, 0.2% Sodium Deoxycholate, 10 mM MgCl2, 1 mM dithiothreitol, 1x protease inhibitor cocktail, and 1x phosphatase inhibitor cocktail). The supernatants were collected and subjected to the GST-Rhotekin pull-down assay. The total cell lysates were also blotted in parallel. GTP-bound RhoA was quantitatively detected with Western blotting using an anti-RhoA antibody. The relative amounts of RhoA were quantified with densitometry measurements and normalized to the untreated platelets.

RhoA-LARG interaction = target: T1, RhoA-LARG interaction (Homo sapiens, UniProt P61586); test: In vitro complex-formation assay of RhoA with LARG DH-PH domain; type: binding; details: 20 µM; pull-down assay conditions, 4 °C, 1 h
T1 construct: 100 ng of purified full-length RhoA
Procedure: (A) A complex-formation assay tested the inhibitory effects of 20 µM UC-177618 and UC-177619 on RhoA interaction with the LARG DH-PH domain. […] After incubating the compound-RhoA-LARG mixture at 4 °C for 1 h, the beads associated with RhoA were detected with anti-RhoA Western blotting. (B,C) Top view of the predicted structural contacts of UC-177618 and UC-177619 in the binding pocket around the Trp58 residue of RhoA.
(A) A complex-formation assay tested the inhibitory effects of R-G04 and S-G04 on RhoA interaction with the LARG DH-PH domain. MBP-(His)6-tagged LARG (100 ng) was immobilized on Amylose beads. Binding buffer containing full-length RhoA (100 ng) was pre-incubated with different concentrations of R-G04 (25 µM or 50 µM), and S-G04 (5 µM or 10 µM) was added to the beads. After incubating the compound-RhoA-LARG mixture at 4 °C for 1 h, the beads associated with RhoA were detected with anti-RhoA Western blotting. (B) Top view of the predicted structural contacts of R-G04 and S-G04 in the binding pocket around the Trp58 residue of RhoA.
In total, 100 ng of purified MBP (Maltose-binding protein)-(His)6-tagged LARG DH-PH was immobilized on 20 µL of suspended amylose beads (No. E8021S; New England Biolabs Inc., Ipswich, MA, USA) by incubating them in an orbital shaker at 4 °C for 30 min in binding buffer (20 mM Tris·HCl (pH 7.6), 100 mM NaCl, 0.01% Triton X-100, 5mM EDTA, and 5 mM MgCl2). The compounds were added to the binding buffer containing 100 ng of purified full-length RhoA and pre-incubated at 4 °C for 30 min under constant agitation. The Amylose beads bound to LARG were washed thrice with binding buffer to get rid of unbound LARG, and the pre-incubated compound-RhoA mixture was added to the beads. This LARG-compound-RhoA mixture was incubated in the orbital shaker at 4 °C for 1 h. The beads were washed three times, and the amount of RhoA protein co-precipitated with the MBP-fusion-bound beads was detected with anti-RhoA Western blotting.

washed human platelets [2] = test: Collagen-induced platelet aggregation, light transmission aggregometry (Born method); type: cell-based; details: for IC50: Homo sapiens, collagen-induced platelet aggregation, compounds without IC50 determination estimated from percent inhibition at 20 µM, read-out: IC50 (SAR table); for IC50 / activity at 20 µM: Platelet; for activity at 20 µM: compound 20 µM, washed human platelets, means ± SDs of three experiments, 100% = agonist alone
Procedure: Light transmission aggregometry, i.e., the Born method, was used to determine in vitro antiplatelet aggregation activity using collagen as the agonist for platelet aggregation. Collagen was selected as the agonist, since it is the most thrombogenic component of the subendothelial layer. Collagen also serves as a substrate for platelet adhesion and as an inducer of platelet activation.
All experiments using human blood from healthy volunteers were performed according to the protocols approved by the Institutional Review Board at Cincinnati Children’s Hospital Medical Center, Cincinnati, Ohio. Each volunteer was required to sign an informed consent form approved by the IRB. Procedures for drawing human blood, isolating platelet-rich plasma (PRP), and preparing washed platelet suspensions were the same as those previously reported. […] PRP was obtained by means of the centrifugation of blood at 1400 rpm for 15 min at room temperature. PRP was centrifuged at 4000 rpm for 10 min at room temperature, and the platelet pellet was resuspended in HEPES Tyrode’s solution (pH 7.4) without calcium. Platelets were counted using Hemavet 950FS (Drew Scientific, Oxford, CT, USA), and the count was adjusted to 2.5 × 10^8/mL for aggregation studies.
The in vitro antiplatelet activity of the compounds was assayed on washed human platelets using light transmission aggregometry. Platelet aggregation was performed using a 4-channel Lumi-aggregometer (Chronolog, PA, USA) at 37 °C and stirring speed of 900 rpm. A volume of 250 µL of washed human platelets (2.5 × 10^8/mL) was pre-warmed to 37 °C along with the compounds or DMSO (0.1%) for 2 min before the addition of agonists such as collagen, AA, U46619 (a stable synthetic analog of thromboxane A2), ADP, and thrombin. For ATP secretion, platelets were pre-incubated with a luciferin/luciferase kit (Chrono-lume®) for 30 s at 37 °C before the addition of the agonist. The reactions were allowed to proceed for at least 4 min, and the results of platelet aggregation and ATP secretion were determined using Aggrolink software. Platelet aggregation was expressed as the maximum change in the light transmission, where the 100% value corresponded to treatment with the agonist alone. Compounds were evaluated in triplicate at nine compound concentrations ranging from 50 µM to 1 µM.

[3] = read-out: % Platelet Aggregation, Collagen (1 µg/mL)
[4] = read-out: % Platelet Aggregation, Collagen (5 µg/mL)

T1 sequence (P61586 whole entry, the tested form may be a part): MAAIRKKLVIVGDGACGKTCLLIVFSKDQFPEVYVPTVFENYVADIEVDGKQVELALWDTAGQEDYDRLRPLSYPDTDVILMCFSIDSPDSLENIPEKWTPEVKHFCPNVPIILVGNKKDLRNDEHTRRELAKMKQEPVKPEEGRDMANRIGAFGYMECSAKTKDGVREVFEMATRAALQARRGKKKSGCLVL

SMILES | reversibility of inhibitory effect after wash-out (washed human platelets [1]) | RhoA-GTP formation (RhoA) | LARG binding to RhoA (RhoA-LARG interaction) | IC50 (washed human platelets [2]) [nM] | activity at 20 µM (washed human platelets [2]; [3]) [%] | activity at 20 µM (washed human platelets [2]; [4]) [%] | activity in collagen-induced platelet aggregation (SAR statement) (washed human platelets [2]; relative to the quinoline analogs)
O=C(NNc1ccnc2c(C(F)(F)F)cccc12)c1ccc(Cl)c(Cl)c1 [UC-177618] | entirely reversible | inhibited RhoA-GTP formation | inhibit RhoA-LARG interaction | 1500 | 5 ± 1.7 | 10.2 ± 4.1 | 
O=C(NNc1ccnc2cc(Cl)ccc12)c1ccc(Cl)c(Cl)c1 [UC-177619] | entirely reversible | inhibited RhoA-GTP formation | inhibit RhoA-LARG interaction | 820 | 9.3 ± 3.5 | 12 ± 2.1 | slightly better potency
